Laboratory results from article PMC7201828, “Comparison of Inhibitor and Substrate Selectivity between Rodent and Human Vascular Adhesion Protein-1” (Mediators of Inflammation, 2020).
“Also recorded” adds a separate entry of the source. Like-named read-outs stand apart in the source and are kept apart here.

How the values were obtained:
[1] = target: T1, recombinant human VAP-1 (rhVAP-1) (Homo sapiens, UniProt Q16853); assay: VAP-1 oxidative deamination fluorescence assay (Amplex Red, benzylamine), inhibition; type: biochemical; conditions: for IC50: recombinant human VAP-1, 50 μM BA, 30 minutes at 37°C, three separate determinations, read-out: IC50 mean ± SD, Human
T1 construct: purchased R&D Systems 3957-AO-010; host or cells: Spodoptera frugiperda Sf21 (baculovirus)
T1 sequence (Q16853 27-763 limits assumed): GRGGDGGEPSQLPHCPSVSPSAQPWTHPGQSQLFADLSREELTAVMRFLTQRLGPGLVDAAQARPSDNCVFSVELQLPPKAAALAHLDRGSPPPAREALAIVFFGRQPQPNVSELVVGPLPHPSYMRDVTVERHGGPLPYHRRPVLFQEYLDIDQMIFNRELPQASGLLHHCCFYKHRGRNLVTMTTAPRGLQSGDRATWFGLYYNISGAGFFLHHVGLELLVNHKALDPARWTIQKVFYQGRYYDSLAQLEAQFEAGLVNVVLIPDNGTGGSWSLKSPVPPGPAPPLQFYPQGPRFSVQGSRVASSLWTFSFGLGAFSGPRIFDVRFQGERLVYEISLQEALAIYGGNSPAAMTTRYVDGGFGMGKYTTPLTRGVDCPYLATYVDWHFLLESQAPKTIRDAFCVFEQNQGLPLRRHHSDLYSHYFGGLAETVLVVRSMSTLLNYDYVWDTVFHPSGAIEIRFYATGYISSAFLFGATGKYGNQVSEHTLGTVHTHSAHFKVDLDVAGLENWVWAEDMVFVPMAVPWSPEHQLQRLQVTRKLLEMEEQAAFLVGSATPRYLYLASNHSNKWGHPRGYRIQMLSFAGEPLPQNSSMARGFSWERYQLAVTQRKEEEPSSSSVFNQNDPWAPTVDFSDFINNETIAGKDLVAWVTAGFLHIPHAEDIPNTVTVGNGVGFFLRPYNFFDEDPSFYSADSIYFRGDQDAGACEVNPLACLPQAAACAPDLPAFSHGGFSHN
Procedure: (§1) Data processing was performed using Prism software.

[2] = target: T2, recombinant rat VAP-1 (rrVAP-1) (Rattus norvegicus, UniProt O08590); assay: as above; type: biochemical; conditions: recombinant rat VAP-1, 50 μM BA, 30 minutes at 37°C, three separate determinations; read-out: IC50 mean ± SD, Rat
T2 construct: purchased R&D Systems (custom product); host or cells: Spodoptera frugiperda Sf21 (baculovirus)
T2 sequence (O08590 28-763 limits assumed): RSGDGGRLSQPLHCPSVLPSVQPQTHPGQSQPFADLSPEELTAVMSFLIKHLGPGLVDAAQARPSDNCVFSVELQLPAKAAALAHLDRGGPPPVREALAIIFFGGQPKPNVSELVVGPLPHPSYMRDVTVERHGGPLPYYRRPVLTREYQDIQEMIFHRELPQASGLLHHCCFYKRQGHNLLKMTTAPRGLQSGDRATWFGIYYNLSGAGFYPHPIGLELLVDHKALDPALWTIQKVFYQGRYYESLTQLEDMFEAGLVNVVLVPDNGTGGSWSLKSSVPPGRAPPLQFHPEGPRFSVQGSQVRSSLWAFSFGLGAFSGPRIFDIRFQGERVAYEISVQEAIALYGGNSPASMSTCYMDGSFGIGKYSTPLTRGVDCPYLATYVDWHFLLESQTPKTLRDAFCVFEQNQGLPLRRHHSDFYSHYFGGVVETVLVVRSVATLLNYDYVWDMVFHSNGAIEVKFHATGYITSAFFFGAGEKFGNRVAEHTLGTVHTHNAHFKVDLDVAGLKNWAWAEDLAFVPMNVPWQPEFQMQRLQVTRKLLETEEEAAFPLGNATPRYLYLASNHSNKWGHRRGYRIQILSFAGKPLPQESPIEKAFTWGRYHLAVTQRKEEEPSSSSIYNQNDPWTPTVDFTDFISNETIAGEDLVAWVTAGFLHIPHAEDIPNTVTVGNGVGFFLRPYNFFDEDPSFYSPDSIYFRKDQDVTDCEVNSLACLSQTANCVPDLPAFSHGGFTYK
Procedure: as §1

[3] = test system: VAP-1 from rat lung homogenates; set-up: method as in PMID 16081681; conditions: radiolabeled substrate, read-out: IC50 previously reported, Rat; cited from earlier work
[4] = test system: VAP-1 from human umbilical cord homogenates; set-up: method as in PMID 16081681; conditions: radiolabeled substrate, read-out: IC50 previously reported, Human; cited from earlier work
mice = test system: mice; set-up: method as in PMID 16081681, PMID 23263543; conditions: oral administration to mice, ulcerative colitis and LPS-induced endotoxemia; cited from earlier work
rats = test system: rats; set-up: method as in PMID 16081681, PMID 23263543; conditions: oral administration to rats, carrageenan footpad model; cited from earlier work
[5] = target: T3, recombinant mouse VAP-1 (rmVAP-1) (Mus musculus, UniProt O70423); assay: VAP-1 oxidative deamination fluorescence assay (Amplex Red, benzylamine), inhibition
T3 sequence (O70423 28-765 limits assumed): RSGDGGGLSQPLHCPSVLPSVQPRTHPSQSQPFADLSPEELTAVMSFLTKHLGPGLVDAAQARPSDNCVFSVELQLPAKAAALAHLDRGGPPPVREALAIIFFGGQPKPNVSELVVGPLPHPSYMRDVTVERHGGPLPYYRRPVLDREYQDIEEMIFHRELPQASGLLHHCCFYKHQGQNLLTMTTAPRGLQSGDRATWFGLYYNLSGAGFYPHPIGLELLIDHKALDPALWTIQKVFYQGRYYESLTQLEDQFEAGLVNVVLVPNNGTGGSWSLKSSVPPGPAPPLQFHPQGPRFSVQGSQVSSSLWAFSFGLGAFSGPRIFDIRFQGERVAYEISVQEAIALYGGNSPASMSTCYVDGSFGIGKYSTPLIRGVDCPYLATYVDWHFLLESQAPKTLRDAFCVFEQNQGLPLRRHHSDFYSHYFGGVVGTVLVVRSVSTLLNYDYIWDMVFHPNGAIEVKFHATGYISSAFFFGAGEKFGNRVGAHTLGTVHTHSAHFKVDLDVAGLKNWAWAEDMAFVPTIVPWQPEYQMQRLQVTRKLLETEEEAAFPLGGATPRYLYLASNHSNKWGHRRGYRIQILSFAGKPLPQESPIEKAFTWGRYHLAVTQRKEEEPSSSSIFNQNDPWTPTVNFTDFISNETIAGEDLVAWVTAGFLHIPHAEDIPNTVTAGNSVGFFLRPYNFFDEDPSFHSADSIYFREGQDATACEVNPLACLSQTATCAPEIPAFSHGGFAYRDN
Procedure: (§2) The enzymatic activity of recombinant VAP-1 and inhibitor potency was determined using a variation of the fluorometric assay for measuring hydrogen peroxide formation [22]. Briefly, the assay measures the H2O2 generated during the oxidative deamination of an amine substrate (BA for inhibition purposes) by converting Amplex® Red to the fluorescent product, resorufin, via horseradish peroxidase (HRP). […] Stock solutions of Amplex Red (1 mM), HRP (10 U/mL), the substrates (200 μM BA for inhibition), and inhibitor were prepared in reaction buffer and added to the appropriate wells, that the final concentration in each well was 0.05 mM Amplex Red, 0.5 U/mL HRP, and 50 μM BA (saturating condition) in a total reaction volume of 0.1 mL.
(§3) Standard curves were prepared for each plate by serially diluting H2O2 in reaction buffer with equivalent concentrations of Amplex Red and HRP. A 10 μM solution of resorufin was prepared in reaction buffer and was dispensed in duplicate as the positive control for maximum fluorescence. Plates were incubated for 30 minutes at 37°C, protected from light under foil to minimize the resorufin artifactually formed when Amplex Red is exposed to light [28]. The plate was read at 530/35 emission and 590/35 excitation. The mean fluorescence of the background was subtracted from the mean fluorescence of the inhibitor concentration in the presence of BA. The percent control was calculated using equation (1). […] (1) %control=average fluorescence with inhibitor−background/average fluorescence of reaction without inhibitor−background×100, (2) %inhibition=100−%control.

[6] = test system: VAP-1 in in vitro tissue preparations; set-up: method as in PMID 8920635; conditions: humans; cited from earlier work
[7] = test system: VAP-1 in bovine lung microsomes; set-up: method as in PMID 8694842; conditions: coincubated with benzylamine; cited from earlier work
recombinant mouse VAP-1 = recombinant mouse VAP-1 (Mus musculus, UniProt O70423); assay: Substrate saturation curves, fluorometric assay detecting hydrogen peroxide; conditions: recombinant mouse VAP-1, n = 1 plate
Procedure: as §2, §3
(§4) Both substrates were incubated with recombinant VAP-1 in triplicate on three separate plates.

VAP-1 = test system: VAP-1; set-up: method as in PMID 16570912; conditions: cell-based inhibition assay; cited from earlier work
lysyl oxidase (LOX) = test system: lysyl oxidase (LOX); set-up: method as in PMID 17872591, PMID 17452500, PMID 18469024; conditions: cited from earlier work
[8] = test system: VAP-1 from rat aorta homogenates; conditions: read-out: IC50 previously reported, Rat, 14C-BA; cited from earlier work
[9] = test system: human VAP-1 from aorta membrane preparations; conditions: read-out: IC50 previously reported, Human, LC-MS/MS benzaldehyde formation; cited from earlier work
[10] = target: human VAP-1 recombinant enzymes; conditions: read-out: IC50 previously reported, Human, LC-MS/MS benzaldehyde formation; cited from earlier work
[11] = test system: rat and mouse disease models; conditions: various rat and mouse disease models; cited from earlier work
recombinant rat VAP-1 = recombinant rat VAP-1 (Rattus norvegicus, UniProt O08590); assay: Substrate saturation curves, fluorometric assay detecting hydrogen peroxide; conditions: recombinant rat VAP-1, n = 1 plate
Procedure: as §2, §3, §4

recombinant human VAP-1 = recombinant human VAP-1 (Homo sapiens, UniProt Q16853); assay: as above; conditions: recombinant human VAP-1, n = 1 plate
Procedure: as §2, §3, §4

human VAP-1 = test system: human VAP-1; set-up: method as in PMID 23540955; conditions: recombinant enzyme suspension from CHO cells expressing human VAP-1, 14C-BA; read-out: IC50 previously reported, Human; cited from earlier work
rat VAP-1 = test system: rat VAP-1; set-up: method as in PMID 23540955; conditions: recombinant enzyme suspension from CHO cells expressing rat VAP-1, 14C-BA; read-out: IC50 previously reported, Rat; cited from earlier work
rhVAP-1 = test system: rhVAP-1; set-up: method as in PMID 23664164; conditions: recombinant human VAP-1; cited from earlier work
[12] = test system: STZ-induced diabetic rats; set-up: method as in PMID 23664164; conditions: administered subcutaneously; cited from earlier work

C=C(CNN)c1ccccc1 [LJP-1207]
IC50 [1]: 252 ± 22.5 nM | IC50 [2]: 120 ± 6.7 nM | IC50 [3]: 7.5 nM | IC50 [4]: 17 nM | Reduction of inflammation (mice): effective in reducing inflammation | Reduction of inflammation (rats): effective in reducing inflammation | IC50 [5]: 102 ± 47.8 nM

NCCc1ccccc1 [Phenylethylamine (PEA), phenylethylamine]
Km [6]: 7.9 mM

NNCCc1ccccc1 [phenelzine]
Potency relative to semicarbazide [7]: over 100 times

NCCc1ccc(O)cc1 [TYR, tyramine]
Km [6]: 10.5 mM | Substrate turnover (in words) (recombinant mouse VAP-1): low reaction rates; also recorded: not a substrate

NNC(N)=O [Semiarid (SEM), semicarbazide]
Difference in IC50 between human and rat VAP-1 ([1]; 85.9 μM vs. 993 μM): ~10 fold | IC50 [1]: 85900 ± 12900 nM | IC50 [2]: 993000 ± 1.22e+06 nM | Semicarbazide required for inhibition relative to LJP-1207 (VAP-1): 100 x | Inhibition of lysyl oxidase (in words) (lysyl oxidase (LOX)): inhibits | IC50 ([5]; read-out: IC50 mean ± SD, Mouse, recombinant mouse VAP-1, 50 μM BA, 30 minutes at 37°C, three separate determinations): 295000 ± 29000 nM

NNc1nncc2ccccc12 [Hydralazine (HYD), hydralazine]
IC50 [1]: 7750 ± 2320 nM | IC50 [2]: 3130 ± 123 nM | Potency relative to semicarbazide [7]: twenty times more potent | IC50 [8]: 25 nM | IC50 [9]: 6400 nM | IC50 [10]: 26500 nM | IC50 [5]: 1180 ± 92 nM

NNc1ccccc1 [phenylhydrazine]
Potency relative to semicarbazide [7]: over 100 times

CC(C)(C)NC(=O)c1ccc(OC/C(=C/F)CN)cc1 [PXS-4728A]
Leukocyte adhesion and migration to sites of lung inflammation [11]: reduced leukocyte adhesion and migration

NCCc1c[nH]c2ccccc12 [tryptamine]
Substrate turnover (in words) (recombinant mouse VAP-1): low reaction rates | Substrate turnover (in words) (recombinant rat VAP-1): low reaction rates | Substrate turnover (in words) (recombinant human VAP-1): low reaction rates

CC(=O)Nc1nc(CCc2ccc(NC(=N)N)cc2)c(Cc2ccc(S(C)(=O)=O)cc2)s1 [Astellas compound 35c]
IC50 [1]: 22.5 ± 6.9 nM | IC50 [2]: 50.4 ± 6.8 nM | IC50 (human VAP-1): 20 nM | IC50 (rat VAP-1): 72 nM | IC50 (rhVAP-1): 230 nM | Ocular permeability [12]: significantly reduced ocular permeability | IC50 [5]: 414 ± 113 nM
